The source of these data is patent publication US4279822A, “N-(1-Substituted-3-pyrrolidinyl)benzamides” (A. H. Robins Company, Inc., priority 1976, dated 1981).

The subject of the first experiment is apomorphine-induced emesis in dogs. Nature of the experiment: Reduction of apomorphine-induced emesis in dogs (anti-emetic effect). The class given is in vivo. The note with it: Canis lupus familiaris, sc, 40 min, read-out: ED50, Anti-Emetic Effect of Subcutaneous Administration. How it is done: The anti-emetic properties of the compounds of Formula I were established using a modification of the methods of Chen and Ensor, J. Pharmac. Exp. Ther. 98: 245-250 (1950) and of Leonard et al., J. Pharmac. Exp. Ther. 154: 339-345 (1966). Drug activity was assessed by its ability to reduce the frequency of apomorphine-induced emesis in dogs. The dogs were prescreened for fairly constant emetic responses to the subcutaneous administration of 0.1 mg/kg. of apomorphine hydrochloride, and those which vomited five or more times in the 40-minute period after apomorphine administration were selected for drug studies.
Groups of three dogs were used in preliminary tests and for the determinations of time of peak drug effect. Dose response curves were usually obtained using four drug-treated groups; each group contained at least three dogs. The dogs were fed approximately 17 hours prior to a test. Drugs were administered and at suitable intervals the dogs received 0.1 mg/kg of apomorphine hydrochloride subcutaneously. Frequency of emesis was determined during the next 40 minutes and emesis was counted as the actual expulsion of stomach contents.
In oral studies, drugs were administered in gelatin capsules (controls received an empty capsule). In the subcutaneous studies, drugs were administered in distilled water and/or polyethylene glycol-300.
Dogs were re-used at intervals of not less than one week. The ED50 is the dose which reduces the frequency of emesis of drug treated dogs to a value 50% below that of controls. Mean frequency of emesis for each drug treated group was compared with a mean control value derived by pooling the prior control emetic frequencies for all dogs used on that test day. The difference is expressed as a percentage decrease relative to controls. The percent decrease in mean frequency of emesis for each drug-treated group (ordinate) was plotted against log dose (abscissa) on semi-log graph sheets. The ED50 was calculated by the method of Goldstein (Biostatistics, An Introductory Test; Pages 156-161; The MacMillan Co., New York, 1964).
As to `CC(=O)Nc1ccc(C(=O)NC2CCN(C3CCCCC3)C2)cc1` (stereo not drawn) [Example 4, N-(1-Cyclohexyl-3-pyrrolidinyl)-4-acetamidobenzamide], the ED50 is 2.4 mg/kg.
On the same count and under the same terms, for `O=C(NC1CCN(C2CCCCC2)C1)c1cc([N+](=O)[O-])cc([N+](=O)[O-])c1` (stereo not drawn) [Example 6, N-(1-Cyclohexyl-3-pyrrolidinyl)-3,5-dinitrobenzamide] the value was 0.15 mg/kg; for `O=C(NC1CCN(C2CCCCC2)C1)c1ccc(Cl)cc1Cl` (stereo not drawn) [Example 14], 2.4 mg/kg.

Staying with this experiment, now noted: Canis lupus familiaris, sc, 40 min; dogs, s.c.; doses expressed as free base; apomorphine hydrochloride 0.1 mg/kg s.c.; 50% reduction of emesis frequency vs controls, 40 min; read-out: ED50, Anti-Emetic Effect of Subcutaneous Administration.
Regarding `CNc1ccc(C(=O)N(C)C2CCN(C3CCCCC3)C2)cc1.Cl.Cl` (stereo not drawn) [Example 5, 4-Methylamino-N-(1-cyclohexyl-3-pyrrolidinyl)-N-methylbenzamide Dihydrochloride], the ED50 was determined as 0.05 mg/kg.

Still in this experiment, the particulars now being: dogs, 5 mg/kg s.c.; percent reduction in emesis over that of controls; apomorphine hydrochloride 0.1 mg/kg s.c.
`CS(=O)(=O)N(c1ccc(C(=O)NC2CCN(C3CCCCC3)C2)cc1)S(C)(=O)=O` (stereo not drawn) [Example 8, N-(1-Cyclohexyl-3-pyrrolidinyl)-4-[bis(methylsulfonyl)amino]benzamide]: the “% Reduction in Emesis” value was -44%.
Same read-out and setting: for `CC(=O)Nc1cccc(C(=O)NC2CCN(C3CCCCC3)C2)c1` (stereo not drawn) [Example 33] the value was -87%.
On the same count and under the same terms, for `CS(=O)(=O)Nc1ccc(C(=O)NC2CCN(C3CCCCC3)C2)cc1` (stereo not drawn) [Example 34] the value was -86%; for `CC(=O)Nc1ccccc1C(=O)NC1CCN(C2CCCCC2)C1` (stereo not drawn) [Example 35], -95%; for `CC(=O)Nc1ccc(C(=O)NC2CCN(Cc3ccccc3)C2)cc1` (stereo not drawn) [Example 36], -59%.
